Data set [1] has as its system NSCLC.N6-L16. Briefly: Cytotoxicity, 50% inhibition of cell growth, NSCLC-N6. Format: cell-based. The note with it: Homo sapiens; NSCLC.N6-L16; read-out: IC50 (50% inhibition of cell growth). On the procedure:
(§1) The cytoxicity results are recorded hereafter as the IC50 in μg/ml (concentration corresponding to a 50% inhibition of cell growth) on 6 tumoural lines namely KB, P388, P388/dox (resistant to doxorubicin), B16 and H429 and NSCLC-N6, which are human cells of non-small cell bronchopulmonary carcinoma type.
(§2) The determinations were carried out according to the protocol given in Cancer Chemother. Pharmacol. (1991) 28:283-292 by Roussakis et al.

Data set [2] has as its system HT 29. Kind of data set: Cytotoxicity, 50% inhibition of cell growth, HT 29. Format: cell-based. To be noted: Homo sapiens; HT 29; read-out: IC50 (50% inhibition of cell growth). On the procedure:
as §1, §2

For data set [3], the system named is P388/dox (p388r). Kind of data set: Cytotoxicity, 50% inhibition of cell growth, P388/dox (resistant to doxorubicin). It counts as cell-based. To be noted: Mus musculus. On the procedure: as §1, §2
Data set [4] relates to L.(L) donovani. Briefly: Anti-leishmanial activity in vitro. Format: cell-based. To be noted: 500 μg/ml.
The subject of data set [5] is Plasmodium vinckei petteri. Kind of data set: Flow cytometry study of parasitized murine red blood corpuscles. The note with it: G1 phase, maturation stage. The text has this: The consequence of this is to halt the proliferation at the middle and old trophozoite stage.
On the technique in general: In flow cytometry, cells or beads pass a laser one at a time.

Data set [6] deals with P388 (p388s). Kind of data set: Cytotoxicity, 50% inhibition of cell growth, P388. It counts as cell-based. To be noted: Mus musculus, P388/S; p388s; read-out: IC50 (50% inhibition of cell growth). On the procedure: as §1, §2
Data set [7] concerns NSCLC solid tumours (xenograft). It counts as in vivo, nude mouse. The note with it: at the end of 30 days. On the procedure:
The anti-tumoural activity of the products of the invention was studied against solid tumours of NSCLC type grafted onto a nude mouse (D. Riou, C. Roussakis, J. F. Biard, J. F. Verbist: "Comparative study of antitumor activity of bistramides A, D and K against non-small cell bronchopulmonary carcinoma", Anticancer Research, 1993, 13, 2321-2334). Each mouse received 0.2 ml of a cell solution obtained by the mechanical dispersion of about 1 g of excised mouse tumour in 4.8 ml of a sterile saline solution. The sub-cutaneous grafted tumours were measured over their long length L and their short length 1. The tumoural volume was evaluated according to the formula Vt=L×1^2 /2. The tumoural growth on day d was calculated by the formula Vtd /Vtd0 for each mouse, Vtd0 being the tumoural volume at the start of treatment.
The curve "------.circle-solid.------ " relates to the control experiment, the curves "--- .diamond-solid.---", "-- .quadrature.--" and "-- .box-solid.--" to experiments with 10, 20 and 5 mg/kg of bistramide D respectively and the curve "----*----" to an experiment with 10 mg/kg of bistramide K. Each point represents the average tumoural growth for 6 mice.
In these experiments, bistramide K is injected at the rate of 10 mg/kg by intraperitoneal route for 16 days and bistramide D at the rate of 5 mg/kg by intraperitoneal route every day for 16 days; at 10 mg/kg by intravenous route on days 1, 5, 9, 14, and at 20 mg/kg by intravenous route on days 1, 5, 9, 14.

For data set [8], the system named is Plasmodium vinckei petteri. Kind of data set: Study of the parasitic stage susceptible to bistramides. Format: in vivo, Plasmodium vinckei petteri in SWISS female white mice. The note with it: for patent period: time necessary for the parasitemia to reach 1%: 15 mg/kg, control 5 D. On the procedure:
In order to appreciate the parasitic stage or stages the most susceptible to the action of the bistramides of the invention, the effect of these bistramides was studied on each parasitic stage predominant during the cell cycle for a given species of Plasmodium.
The results given hereafter concern the effect of bistramide B on the parasitic stages of Plasmodium vinckei petteri.
After infestation of the mice, five batches of five mice are constituted. Each batch is treated with a dose of 15 mg/kg of bistramide D at the moment when one of the stages predominates.
In addition, the following batches are prepared: one control batch, one batch of merozoites, one ring batch, one batch of young trophozoites, one batch of middle trophozoites and one batch of old trophozoites.
The following are evaluated: the retardation of parasitemia or the patent period as the time in days necessary for the parasitemia to reach 1%.

Data set [9] deals with KB. Kind of data set: Cytotoxicity, 50% inhibition of cell growth, KB. It counts as cell-based. To be noted: Homo sapiens, read-out: IC50 (50% inhibition of cell growth). The method, then:
as §1, §2

The subject of data set [10] is mice. Kind of data set: Acute toxicity (LD50), intravenous injection in mice. It counts as in vivo. To be noted: statement in words. On the procedure: The LD50 of these bistramides is in fact of the order of 1.7 mg/kg (measured in mice, after injection of the product by intravenous route as a single dose).
The "LD50 " of the products of the invention has been measured for mice after injection of the products by intravenous route.

Data set [11] concerns B16. Kind of data set: Cytotoxicity, 50% inhibition of cell growth, B16. To be noted: Mus musculus, B16; read-out: IC50 (50% inhibition of cell growth). It counts as cell-based. The method, then:
as §1, §2

Data set [12] relates to Plasmodium vinckei petteri. Kind of data set: PETERS test (4-day anti-malarial test in mice). Format: in vivo, Plasmodium vinckei petteri in SWISS female white mice. The note with it: 15 mg/kg/day, 4 days, sub-cutaneous; for percentage inhibition of parasitemia: D4. The method, then:
The animals used are SWISS (IFFA CREDO) female white mice weighing approximately 30 grams. Five mice are distributed per batch.
The species Plasmodium vinckei petteri used comes from the strain 279 BY (see article by Cambie G et al. in CR.Acad.Sci.PARIS 310, series III, 183-188). This plasmodia carries out a schizogonic cycle in 24 hours in a synchronous fashion. Using the freezing-thawing technique for infected blood, only the merozoite stage resists, the other forms being destroyed.
Observation of blood parasites takes place on stained smears carried out by taking a drop of blood from the tail. The smears are then stained with May-Grumwald-Giesma. Calculation of the parasitemia (number of parasites per 100 red blood corpuscles) is carried out on smears.
In these trials bistramide D is used in sterile physiological water containing 5% DMSO.
The product is injected by sub-cutaneous route in the thigh.
In order to verify the activity of the compound studied, the PETERS test is used which constitutes the reference for the screening of molecules with anti-malarial activity. (PETERS W. 1980. Chemotherapy and Drug resistance in Malaria, vol II, Academic Press).
After treatment for 4 days, the percentage of red blood corpuscles parasitized is compared on thin smears between the control batch and the treated batch. In this way a percentage inhibition is established. […]
a) injection of 10^7 of parasitized red blood corpuscles by I.P. route (D0) b) injection of Bistramide D at 15 mg/kg/day, for 4 days by sub-cutaneous route (D0, D1. D2, D3) c) checking the parasitemia on smears on D4

Converted amounts (≈) assume the structure as drawn. Like-named read-outs stand apart in the source and are kept apart here.

With `C/C=C/C(O)CC1CCC(C)C(CC(=O)NCC(O)C(C)C(=O)NCCCC2OC3(CCCC(CCC(C)/C=C(\C)C(C)O)O3)CCC2C)O1` (stereo not drawn) [Bistramide D], the IC50 – broadly, the concentration needed to halve the response being measured – stood at 3.43 µg/mL (≈ 4.85 µM) in data set [1]; 2.76 µg/mL (≈ 3.9 µM) in data set [2]; 5.82 µg/mL (≈ 8.23 µM) in data set [3]; 0.36 µg/mL (≈ 0.509 µM) in data set [6]; 10 µg/mL (≈ 14.1 µM) in data set [9]; 0.1 µg/mL (≈ 0.141 µM) in data set [11]. Also, the anti-leishmanial activity entry in [4] is “has an anti-leishmanial activity in vitro”. Moreover, the “blocking of the parasite / of parasitic proliferation” value in [5] is reported as “partial blocking of the parasite at its maturation stage”. Further, the “tumoural growth relative to controls (100%)” value in [7] (5 mg/kg, IP, every day for 16 days) was 100%; in [7] (10 mg/kg, IV, days 1, 5, 9, 14), 76%; in data set [7] (20 mg/kg, IV, days 1, 5, 9, 14), 53%. Moreover, in data set [8] (KRUSKAL-WALLIS unilateral test, middle and old trophozoite), the “stage selectivity / significance versus control batch” value is reported as “selective activity”. The “patent period: time necessary for the parasitemia to reach 1%” value is given as 5 D in data set [8] (merozoite batch); 6.25 D in data set [8] (middle trophozoite batch); 6.2 D in [8] (old trophozoite batch); 5.4 D in data set [8] (ring batch); 5.6 D in [8] (young trophozoite batch). In [10], the toxicity in vivo result is “less toxic”. In addition, the “percentage inhibition of parasitemia” value is on record as 85% in [12] (trial A), 87% in data set [12] (trial B) and 81% in data set [12] (trial C). The “parasitemia, treated batch on D4” value in data set [12] (trial A, controls 4%) turned out to be 0.64%; in data set [12] (trial B, controls 4%) it was 0.50%; in data set [12] (trial C, controls 1.2%), 0.23%.

The values are drawn from patent US5798381A, “Biologically active bistramides, process for their production and their applications in therapy” (Institut Francais de Recherche Scientifique pour le …, priority 1993, dated 1998).
